According to PubChem BioAssay (NCI):
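A five-concentration, 48-hour dose response in 96-well plates underlies each endpoint, interpolated linearly between surrounding concentrations. At the TGI there is no net growth.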

The molecules below were run on DMS 273 small cell lung (assay: growth of human tumour cells (NCI), 48 h).

Q: How did the TGI turn out when `N#CC1(C2SCCS2=O)C2=C(C(=O)c3ccccc3C2=O)N2CCCC21` (configuration not stated) was run?
A: 12.2 µM

Q: With `N#CC(C(=O)/C(=N/Nc1nc(=S)[nH]n1N)C(C#N)c1ccccc1)c1ccccc1` (configuration not stated) as the molecule, how does the TGI read?
A: > 100 µM

Q: Which TGI does the source give for `O=C(C[n+]1ccccc1)NNC(=O)/C(=C/c1ccc2c(c1)OCO2)NC(=O)c1ccccc1` here?
A: > 69.8 µM

Q: How did the TGI turn out when `Clc1ccc(-c2c(C3=NCCN3)nnn2-c2ccc(Cl)cc2)cc1` was run?
A: > 100 µM

Q: Which TGI does the source give for `CCOC(=O)c1[nH]c(COC(C)=O)c(CCCOC(C)=O)c1CCCOC(C)=O` here?
A: > 100 µM

The molecules below were run on HCC-2998 colon (assay: growth of human tumour cells (NCI), 48 h).

Q: For `N#CC1(C2SCCS2=O)C2=C(C(=O)c3ccccc3C2=O)N2CCCC21` (configuration not stated), which TGI is on record?
A: 11.8 µM

Q: With `N#CC(C(=O)/C(=N/Nc1nc(=S)[nH]n1N)C(C#N)c1ccccc1)c1ccccc1` (configuration not stated) as the molecule, how does the TGI read?
A: > 100 µM

Q: With `O=C(C[n+]1ccccc1)NNC(=O)/C(=C/c1ccc2c(c1)OCO2)NC(=O)c1ccccc1` as the molecule, how does the TGI read?
A: > 100 µM

Q: `Clc1ccc(-c2c(C3=NCCN3)nnn2-c2ccc(Cl)cc2)cc1` was tested. Which TGI did it give?
A: 33.6 µM

Q: For `CCOC(=O)c1[nH]c(COC(C)=O)c(CCCOC(C)=O)c1CCCOC(C)=O`, which TGI is on record?
A: > 100 µM

The molecules below were run on A498 renal (assay: growth of human tumour cells (NCI), 48 h).

Q: Which TGI does the source give for `N#CC1(C2SCCS2=O)C2=C(C(=O)c3ccccc3C2=O)N2CCCC21` (configuration not stated) here?
A: 13 µM

Q: `N#CC(C(=O)/C(=N/Nc1nc(=S)[nH]n1N)C(C#N)c1ccccc1)c1ccccc1` (configuration not stated) was tested. Which TGI did it give?
A: > 100 µM

Q: With `O=C(C[n+]1ccccc1)NNC(=O)/C(=C/c1ccc2c(c1)OCO2)NC(=O)c1ccccc1` as the molecule, how does the TGI read?
A: > 100 µM

Q: How did the TGI turn out when `Clc1ccc(-c2c(C3=NCCN3)nnn2-c2ccc(Cl)cc2)cc1` was run?
A: 38.4 µM

Q: `CCOC(=O)c1[nH]c(COC(C)=O)c(CCCOC(C)=O)c1CCCOC(C)=O` was tested. Which TGI did it give?
A: > 100 µM

What follows are molecules tested on CCRF-CEM leukemia (assay: growth of human tumour cells (NCI), 48 h).

Q: For `N#CC1(C2SCCS2=O)C2=C(C(=O)c3ccccc3C2=O)N2CCCC21` (configuration not stated), which TGI is on record?
A: 24.5 µM

Q: Which TGI does the source give for `N#CC(C(=O)/C(=N/Nc1nc(=S)[nH]n1N)C(C#N)c1ccccc1)c1ccccc1` (configuration not stated) here?
A: > 100 µM

Q: For `O=C(C[n+]1ccccc1)NNC(=O)/C(=C/c1ccc2c(c1)OCO2)NC(=O)c1ccccc1`, which TGI is on record?
A: 65 µM

Q: How did the TGI turn out when `Clc1ccc(-c2c(C3=NCCN3)nnn2-c2ccc(Cl)cc2)cc1` was run?
A: 73 µM

Q: Which TGI does the source give for `CCOC(=O)c1[nH]c(COC(C)=O)c(CCCOC(C)=O)c1CCCOC(C)=O` here?
A: > 100 µM

What follows are molecules tested on SK-MEL-28 melanoma (assay: growth of human tumour cells (NCI), 48 h).

Q: Which TGI does the source give for `N#CC1(C2SCCS2=O)C2=C(C(=O)c3ccccc3C2=O)N2CCCC21` (configuration not stated) here?
A: 7.8 µM

Q: How did the TGI turn out when `N#CC(C(=O)/C(=N/Nc1nc(=S)[nH]n1N)C(C#N)c1ccccc1)c1ccccc1` (configuration not stated) was run?
A: > 100 µM

Q: How did the TGI turn out when `O=C(C[n+]1ccccc1)NNC(=O)/C(=C/c1ccc2c(c1)OCO2)NC(=O)c1ccccc1` was run?
A: > 100 µM

Q: With `Clc1ccc(-c2c(C3=NCCN3)nnn2-c2ccc(Cl)cc2)cc1` as the molecule, how does the TGI read?
A: 52.5 µM

Q: Which TGI does the source give for `CCOC(=O)c1[nH]c(COC(C)=O)c(CCCOC(C)=O)c1CCCOC(C)=O` here?
A: > 100 µM

What follows are molecules tested on LXFL 529 NSCLC (assay: growth of human tumour cells (NCI), 48 h).

Q: For `N#CC1(C2SCCS2=O)C2=C(C(=O)c3ccccc3C2=O)N2CCCC21` (configuration not stated), which TGI is on record?
A: 8.06 µM

Q: For `N#CC(C(=O)/C(=N/Nc1nc(=S)[nH]n1N)C(C#N)c1ccccc1)c1ccccc1` (configuration not stated), which TGI is on record?
A: > 100 µM

Q: `O=C(C[n+]1ccccc1)NNC(=O)/C(=C/c1ccc2c(c1)OCO2)NC(=O)c1ccccc1` was tested. Which TGI did it give?
A: > 77.2 µM

Q: Which TGI does the source give for `Clc1ccc(-c2c(C3=NCCN3)nnn2-c2ccc(Cl)cc2)cc1` here?
A: 95.4 µM

Q: Which TGI does the source give for `CCOC(=O)c1[nH]c(COC(C)=O)c(CCCOC(C)=O)c1CCCOC(C)=O` here?
A: > 100 µM

The molecules below were run on SW-620 colon (assay: growth of human tumour cells (NCI), 48 h).

Q: `N#CC1(C2SCCS2=O)C2=C(C(=O)c3ccccc3C2=O)N2CCCC21` (configuration not stated) was tested. Which TGI did it give?
A: 6.41 µM

Q: For `N#CC(C(=O)/C(=N/Nc1nc(=S)[nH]n1N)C(C#N)c1ccccc1)c1ccccc1` (configuration not stated), which TGI is on record?
A: > 100 µM

Q: How did the TGI turn out when `O=C(C[n+]1ccccc1)NNC(=O)/C(=C/c1ccc2c(c1)OCO2)NC(=O)c1ccccc1` was run?
A: > 100 µM

Q: For `Clc1ccc(-c2c(C3=NCCN3)nnn2-c2ccc(Cl)cc2)cc1`, which TGI is on record?
A: 73.8 µM

Q: How did the TGI turn out when `CCOC(=O)c1[nH]c(COC(C)=O)c(CCCOC(C)=O)c1CCCOC(C)=O` was run?
A: > 100 µM

Each molecule was assayed on DU-145 prostate (assay: growth of human tumour cells (NCI), 48 h).

Q: For `N#CC1(C2SCCS2=O)C2=C(C(=O)c3ccccc3C2=O)N2CCCC21` (configuration not stated), which TGI is on record?
A: 4.93 µM

Q: Which TGI does the source give for `N#CC(C(=O)/C(=N/Nc1nc(=S)[nH]n1N)C(C#N)c1ccccc1)c1ccccc1` (configuration not stated) here?
A: > 100 µM

What follows are molecules tested on LOX IMVI melanoma (assay: growth of human tumour cells (NCI), 48 h).

Q: Which TGI does the source give for `N#CC1(C2SCCS2=O)C2=C(C(=O)c3ccccc3C2=O)N2CCCC21` (configuration not stated) here?
A: 6.53 µM

Q: Which TGI does the source give for `N#CC(C(=O)/C(=N/Nc1nc(=S)[nH]n1N)C(C#N)c1ccccc1)c1ccccc1` (configuration not stated) here?
A: > 100 µM

Q: Which TGI does the source give for `O=C(C[n+]1ccccc1)NNC(=O)/C(=C/c1ccc2c(c1)OCO2)NC(=O)c1ccccc1` here?
A: 49 µM

Q: Which TGI does the source give for `Clc1ccc(-c2c(C3=NCCN3)nnn2-c2ccc(Cl)cc2)cc1` here?
A: > 100 µM

Q: How did the TGI turn out when `CCOC(=O)c1[nH]c(COC(C)=O)c(CCCOC(C)=O)c1CCCOC(C)=O` was run?
A: > 100 µM

These molecules were tested on SR leukemia (assay: growth of human tumour cells (NCI), 48 h).

Q: With `N#CC1(C2SCCS2=O)C2=C(C(=O)c3ccccc3C2=O)N2CCCC21` (configuration not stated) as the molecule, how does the TGI read?
A: 20.7 µM

Q: For `N#CC(C(=O)/C(=N/Nc1nc(=S)[nH]n1N)C(C#N)c1ccccc1)c1ccccc1` (configuration not stated), which TGI is on record?
A: > 100 µM

Q: With `O=C(C[n+]1ccccc1)NNC(=O)/C(=C/c1ccc2c(c1)OCO2)NC(=O)c1ccccc1` as the molecule, how does the TGI read?
A: 36.6 µM

Q: `Clc1ccc(-c2c(C3=NCCN3)nnn2-c2ccc(Cl)cc2)cc1` was tested. Which TGI did it give?
A: 35.1 µM

Q: With `CCOC(=O)c1[nH]c(COC(C)=O)c(CCCOC(C)=O)c1CCCOC(C)=O` as the molecule, how does the TGI read?
A: > 100 µM
